Test [1] concerns the target Mitogen-activated protein kinase 14 (Homo sapiens, UniProt Q16539). In words: Inhibition of human Mitogen-activated protein kinase p38 alpha.
In test [2] the test system is THP-1. Kind of test: Concentration required to inhibit production of Tumor necrosis factor, alpha in LPS-stimulated human monocytic cells (THP-1). Type of test: functional, cell-based.

Data on eight molecules can be found in ChEMBL document CHEMBL1137879, “The development of new bicyclic pyrazole-based cytokine synthesis inhibitors” (Bioorg Med Chem Lett, 2004).

One may read the IC50 as the concentration that gives 50% inhibition.

Mitogen-activated protein kinase 14, sequence (Q16539 whole entry): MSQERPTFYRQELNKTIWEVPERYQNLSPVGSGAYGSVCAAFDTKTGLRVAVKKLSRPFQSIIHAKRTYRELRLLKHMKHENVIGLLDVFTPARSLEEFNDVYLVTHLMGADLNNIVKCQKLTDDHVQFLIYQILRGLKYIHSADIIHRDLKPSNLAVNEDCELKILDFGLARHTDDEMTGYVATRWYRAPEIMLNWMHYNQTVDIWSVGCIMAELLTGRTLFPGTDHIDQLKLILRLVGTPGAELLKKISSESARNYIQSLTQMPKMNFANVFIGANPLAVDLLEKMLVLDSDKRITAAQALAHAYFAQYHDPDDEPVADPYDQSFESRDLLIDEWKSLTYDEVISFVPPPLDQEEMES

Regarding `Fc1ccc(-c2c(-c3ccnc(Oc4ccccc4)n3)nn3c2OCCC3)cc1`, the IC50 in test [1] was 6600 nM; in test [2], greater than 10000 nM.

On to `Fc1ccc(-c2c(-c3ccnc(Oc4ccccc4)n3)nn3c2OCC3)cc1`, for which the IC50 in test [1] amounted to 2200 nM; in test [2] it was 300 nM.

On to `C[C@@H](Nc1nccc(-c2nn3c(c2-c2ccc(F)cc2)OCC3)n1)c1ccccc1`, for which the IC50 is 11200 nM in test [1] and greater than 2000 nM in test [2].

Consider `COC[C@@H](C)Nc1nccc(-c2nn3c(c2-c2ccc(F)cc2)OCC3)n1`, for which the IC50 in test [1] is 280 nM; in test [2], 1700 nM.

For the molecule `CCOCn1nnc(-c2ccncc2)c1-c1ccc(F)cc1`, half-maximal inhibition in test [1] (IC50) required 310 nM.

With `Oc1[nH]nc(-c2ccncc2)c1-c1ccc(F)cc1`, the IC50 in test [1] worked out at 320 nM; in test [2] it was 3100 nM.

As for `Fc1ccc(-c2c(-c3ccncc3)nn3c2OCCC3)cc1`, the IC50 in test [1] is 460 nM; in test [2] it was 3100 nM.

On to `CC[C@@H](C)Nc1nccc(-c2nn3c(c2-c2ccc(F)cc2)OCC3)n1`, for which the figures for the IC50 in test [1] and in test [2] were 360 nM and 80 nM, respectively.
